Results published in patent publication US5753678A, “Heterocyclic compounds” (Novo Nordisk A/S, priority 1995, dated 1998).
Counter-ions that a name gives are not always drawn.

System: histamine induced paw oedema
Assay: Histamine induced paw oedema
Type: in vivo, male Sprague-Dawley rats
Conditions: at 1 mg/kg, intraperitoneally 15 minutes before the anesthetics, rats, paw swelling 20 minutes after histamine
Method: II. Histamine induced paw oedema Values for in vivo inhibition of […] induced oedema for the compounds of the present invention were assessed in rats essentially as described by Amann et al. (Europ. J. Pharmacol. 30 279, 227-231, 1995). In brief 250-300 g male Sprague-Dawley rats were […] pentobarbital sodium, and placed on a 32 degree heated table. Ten minutes later histamine (50 microliter, 3 mg/ml) was injected in the right hind paw and 20 minutes hereafter the paw swelling was determined by water plethysmography (Ugo Basile). Test compounds were administered intraperitoneally at 15 minutes before the anesthetics. |Inhibition of histamine induced oedema at 1 mg/kg

Compound	% oedema inhibition [%]
Cl.O=C(O)[C@@H]1CCCN(CCC=C2c3ccccc3OCOc3ccccc32)C1 [Example 2, (R)-1-(3-(12H-Dibenzo[d,g][1,3]dioxocin-12-ylidene)-1-propyl)-3-piperidinecarboxylic acid hydrochloride]	52
CCOC(=O)[C@@H]1CCCN(CCC=C2c3ccccc3OCOc3ccccc32)C1 [Example 3, (R)-1-(3-(12H-Dibenzo[d,g][1,3]doxocin-12-ylidene)-1-propyl)-3-piperidinecarboxylic acid ethyl ester hydrochloride]	33
